From ChEMBL document CHEMBL1131118, “Inhibition of monoamine oxidase-B by condensed pyridazines and pyrimidines: effects of lipophilicity and structure-activity relationships” (J Med Chem, 1998)
pIC50: −log10 of the molar value.

Legend:
[1] = Partition coefficient (logP) (cyclohexane); conditions: octanol/water
[2] = Partition coefficient (logP); conditions: octanol/water
[3] = molecular target: T1, Amine oxidase [flavin-containing] B (Rattus norvegicus, UniProt P19643); test: Inhibitory activity against Monoamine oxidase B
T1 sequence (P19643 whole entry): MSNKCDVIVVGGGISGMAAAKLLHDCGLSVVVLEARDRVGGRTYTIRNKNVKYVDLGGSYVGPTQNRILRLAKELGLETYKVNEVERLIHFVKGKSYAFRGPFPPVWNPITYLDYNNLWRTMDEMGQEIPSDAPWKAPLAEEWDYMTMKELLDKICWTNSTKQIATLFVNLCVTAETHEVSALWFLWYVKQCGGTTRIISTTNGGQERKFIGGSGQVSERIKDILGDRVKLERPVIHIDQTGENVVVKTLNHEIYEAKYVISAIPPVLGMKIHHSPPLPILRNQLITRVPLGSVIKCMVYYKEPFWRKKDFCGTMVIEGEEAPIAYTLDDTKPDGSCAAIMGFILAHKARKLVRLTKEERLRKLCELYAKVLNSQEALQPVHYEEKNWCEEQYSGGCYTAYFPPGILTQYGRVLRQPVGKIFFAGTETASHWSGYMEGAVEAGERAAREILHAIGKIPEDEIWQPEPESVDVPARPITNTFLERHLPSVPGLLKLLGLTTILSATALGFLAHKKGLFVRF

[4] = molecular target: T2, Amine oxidase [flavin-containing] A (Rattus norvegicus, UniProt P21396); test: Inhibitory activity against Monoamine oxidase A from rat brain mitochondria
T2 sequence (P21396 whole entry): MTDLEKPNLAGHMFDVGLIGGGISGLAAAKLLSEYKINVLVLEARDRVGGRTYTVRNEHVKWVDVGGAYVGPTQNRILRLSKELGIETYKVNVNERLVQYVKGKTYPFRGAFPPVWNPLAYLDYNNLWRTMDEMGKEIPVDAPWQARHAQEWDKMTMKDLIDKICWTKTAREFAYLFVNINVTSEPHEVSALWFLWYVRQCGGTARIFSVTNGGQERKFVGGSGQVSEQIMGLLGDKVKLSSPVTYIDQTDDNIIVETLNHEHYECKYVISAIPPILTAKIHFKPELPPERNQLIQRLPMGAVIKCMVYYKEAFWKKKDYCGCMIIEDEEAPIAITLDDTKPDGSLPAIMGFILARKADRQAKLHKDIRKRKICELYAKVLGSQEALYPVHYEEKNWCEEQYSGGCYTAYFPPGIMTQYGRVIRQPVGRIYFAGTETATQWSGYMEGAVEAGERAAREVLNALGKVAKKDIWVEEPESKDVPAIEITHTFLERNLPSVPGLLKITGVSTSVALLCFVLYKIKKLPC

[5] = molecular target: T1, Amine oxidase [flavin-containing] B; test: Inhibitory activity against Monoamine oxidase B from rat brain mitochondria
[6] = molecular target: T1, Amine oxidase [flavin-containing] B; test: Inhibitory activity against Monoamine oxidase B from rat brain mitochondria at 50 uM
[7] = molecular target: T2, Amine oxidase [flavin-containing] A; test: Inhibitory activity against Monoamine oxidase A from rat brain mitochondria at 50 uM
[8] = molecular target: T2, Amine oxidase [flavin-containing] A
Description: Inhibitory activity against Monoamine oxidase A from rat brain mitochondria at 25 uM

[9] = molecular target: T2, Amine oxidase [flavin-containing] A; test: Inhibitory activity against Monoamine oxidase A from rat brain mitochondria at 5 uM
[10] = molecular target: T1, Amine oxidase [flavin-containing] B; test: Inhibitory activity against Monoamine oxidase B from rat brain mitochondria at 5 uM
[11] = molecular target: T1, Amine oxidase [flavin-containing] B
Description: Inhibitory activity against Monoamine oxidase B from rat brain mitochondria at 125 uM

[12] = molecular target: T1, Amine oxidase [flavin-containing] B; test: Inhibitory activity against Monoamine oxidase B from rat brain mitochondria at 10 uM
[13] = molecular target: T1, Amine oxidase [flavin-containing] B; test: Inhibitory activity against Monoamine oxidase B from rat brain mitochondria at 100 uM
[14] = molecular target: T2, Amine oxidase [flavin-containing] A; test: Inhibitory activity against Monoamine oxidase A from rat brain mitochondria at 100 uM

O=C1c2ccccc2-c2nnccc21
logP [1]: -0.29
logP [2]: 1.22

O=C1c2ccccc2-c2nnc(-c3ccccc3O)cc21
logP [1]: 2.55
logP [2]: 3.15

O=C1c2ccccc2-c2nnc(-c3ccc(F)cc3)cc21
logP [1]: 2.56
logP [2]: > 3

O=C1c2ccccc2-c2nncc(-c3ccccc3)c21
logP [1]: 1.4
logP [2]: 2.8

O=C1CCCc2nnc(-c3ccccc3)cc21
pIC50 [3]: 4.13
pIC50 [4]: 4.23
pIC50 [5]: 4.13
logP [1]: 0.6
logP [2]: 2.05

Cc1cc2c(nn1)-c1ccccc1C2=O
logP [1]: -0.04
logP [2]: 1.58

COc1cccc(-c2cc3c(nn2)-c2ccccc2C3=O)c1
logP [1]: 2.83
logP [2]: > 3

COc1ccccc1-c1cc2c(nn1)-c1ccccc1C2=O
logP [1]: 2.26
logP [2]: > 3

O=C1c2ccccc2-c2nnc(-c3ccc([N+](=O)[O-])cc3)cc21
logP [1]: 2.34
logP [2]: > 3

O=C1c2ccccc2-c2nnc(-c3ccccc3F)cc21
logP [1]: 2.07
logP [2]: > 3

COc1ccc(-c2cc3c(nn2)-c2ccccc2C3=O)cc1
logP [1]: 2.51
logP [2]: > 3

c1ccc(-c2cc3c(nn2)CCC3)cc1
inhibition at 50 µM [6]: 12%
inhibition at 50 µM [7]: 44%

O=C1c2ccccc2-c2nnc(-c3cccc([N+](=O)[O-])c3)cc21
pIC50 [5]: 6.20
logP [1]: 1.66
logP [2]: > 3

O=C1c2ccccc2-c2nnc(-c3ccccc3)cc21
inhibition at 25 µM [8]: 0%
logP [1]: 2.34
logP [2]: > 3

O=C1c2ccccc2-c2cnc(-c3ccccc3)nc21
pIC50 [4]: 5.63
pIC50 [5]: 4.94

Cc1c(-c2ccccc2)nnc2c1C(=O)c1ccccc1-2
logP [1]: 2.16
logP [2]: > 3

c1ccc(-c2cc3[nH]c4ccccc4c3nn2)cc1
inhibition at 5 µM [9]: 0%
inhibition at 5 µM [10]: 0%

O=C1c2ccccc2-c2nnc(-c3ccccc3[N+](=O)[O-])cc21
logP [1]: 1.05
logP [2]: 2.64

O=C1c2ccccc2-c2nnc(-c3ccc(O)cc3)cc21
logP [1]: 0.13
logP [2]: 2.88

O=C1c2ccccc2-c2nnc(C(F)(F)F)cc21
logP [1]: 0.7
logP [2]: 2.21

O=c1[nH]c(=O)c2cc(-c3ccc(C(F)(F)F)cc3)nnc2[nH]1
inhibition at 5 µM [9]: 15%
inhibition at 5 µM [10]: 12.5%

O=c1[nH]c(=O)c2cc(-c3ccccc3)nnc2[nH]1
inhibition at 125 µM [11]: 32%
pIC50 [4]: 4.79
logP [1]: -2.22
logP [2]: 1.56

O=C1c2ccccc2-c2nc(-c3ccccc3)ncc21
pIC50 [4]: 5.08
pIC50 [5]: 4.94
inhibition at 10 µM [12]: 28%
logP [1]: 3.15
logP [2]: > 3

O=C(c1ccccc1)c1ccnnc1
logP [1]: -0.45
logP [2]: 1.09
inhibition at 100 µM [13]: 29%
inhibition at 100 µM [14]: 18%
